Assay results as given in PMC3250963, “Novel dimeric DOTA-coupled peptidic Y1-receptor antagonists for targeting of neuropeptide Y receptor-expressing cancers” (EJNMMI Research, 2011).
Bridge positions count the residues as written; N and C are the ends. Square brackets hold non-standard residues; d marks the D form. Peptide text beside a SMILES is read from it. I, II: the chains in the order shown. * marks the point of attachment. DOTA = O=C(O)CN1CCN(CC(=O)O)CCN(CC(=O)*)CCN(CC(=O)O)CC1; Nle = CCCC[C@H](N)C(=O)O; Dap = NC[C@H](N)C(=O)O

Legend:
NPY Y1 receptor = molecular target: T1, NPY Y1 receptor (Homo sapiens, UniProt P25929); assay: Receptor autoradiography competition binding (125I-hPYY) on SK-N-MC cell membrane pellet sections; details: for IC50: SK-N-MC membrane pellets, 125I-hPYY displacement, mean ± SEM, n ≥ 3, read-out: Binding affinity Y1 (IC50)
T1 construct: SK-N-MC cells endogenously expressing Y1; host or cells: SK-N-MC
T1 sequence (P25929 1-384): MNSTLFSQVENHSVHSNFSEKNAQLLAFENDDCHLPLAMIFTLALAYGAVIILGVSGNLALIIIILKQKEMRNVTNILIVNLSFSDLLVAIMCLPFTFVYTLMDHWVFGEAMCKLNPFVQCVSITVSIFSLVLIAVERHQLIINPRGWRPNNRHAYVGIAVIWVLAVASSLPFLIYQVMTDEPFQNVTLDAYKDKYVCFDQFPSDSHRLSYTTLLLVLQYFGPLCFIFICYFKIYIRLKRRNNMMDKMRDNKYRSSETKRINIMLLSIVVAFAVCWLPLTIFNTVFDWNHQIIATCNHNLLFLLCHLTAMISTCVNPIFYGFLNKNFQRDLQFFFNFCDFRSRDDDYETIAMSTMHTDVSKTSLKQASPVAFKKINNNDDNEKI
Protocol: (§1) The neuroepithelioma cell line SK-N-MC endogenously expressing the NPY Y1 receptor was obtained from ATCC (HTB-10; LGC Standards, Teddington, Middlesex, UK) and cultured at 37°C and 5% CO2 in MEM with GlutaMax I and supplemented with 10% FBS, 100 U/ml penicillin and 100 μg/ml streptomycin, 1 mM MEM sodium pyruvate, and MEM non-essential amino acids (× 1). The neuroblastoma cell line SH-SY5Y endogenously expressing the NPY Y2 receptor, kindly provided by Dr. Paolo Paganetti (Novartis, Basel, Switzerland), was cultured at 37°C and 5% CO2 in MEM/Ham's F12 with GlutaMax I and supplemented with 10% FBS, 100 U/ml penicillin and 100 μg/ml streptomycin, 1 mM MEM sodium pyruvate, and MEM non-essential amino acids (× 1). All culture reagents were from Gibco BRL, Life Technologies, (Grand Island, NY, USA).
(§2) Binding affinities of the compounds were assessed using sections of cell membrane pellets of SK-N-MC for Y1 or SH-SY5Y for Y2, as described before. Briefly, membrane pellets were prepared and stored at -80°C, and receptor autoradiography was performed on 20-μm-thick cryostat (Microm HM 500, Walldorf, Germany) sections of the membrane pellets, mounted on microscope slides and stored at -20°C as previously described for other cell lines and receptors. The slides were preincubated in Krebs-Ringer solution (NaCl 119 mM, KCl 3.2 mM, KH2PO4 1.19 mM, MgSO4 1.19 mM, NaHCO3 25 mM, CaCl2 2.53 mM, D-glucose 10 mM; pH 7.4) for 60 min at room temperature. Then, they were incubated for 120 min in the incubation solution containing the Krebs-Ringer solution, 0.1% BSA, 0.05% bacitracin, and 10,000 cpm/100 μl of the ^125I-labeled human PYY (hPYY; 2,000 Ci/mmol; Anawa, Wangen, Switzerland). Membrane pellet sections were incubated with ^125I-hPYY in increasing concentrations ranging from 0.1 nM up to 1,000 nM of non-labeled hPYY, as control, or with the compounds to be tested. After the incubation, the slides were washed two times for 5 min and then rinsed four times in ice-cold preincubation solution. After drying, the slides were exposed to Kodak films Biomax MR® for 7 days. IC50 values were calculated after quantification of the data using a computer-assisted image processing system (Analysis Imaging System, Interfocus, Mering, Germany). Tissue standards (autoradiographic [^125I] and/or [^14C] microscales, GE Healthcare, Little Chalfont, UK) containing a known amount of isotope, cross-calibrated to tissue-equivalent ligand concentrations were used for quantification.

NPY Y2 receptor = molecular target: T2, NPY Y2 receptor (Homo sapiens, UniProt P49146); assay: Receptor autoradiography competition binding (125I-hPYY) on SH-SY5Y cell membrane pellet sections; details: SH-SY5Y membrane pellets, 125I-hPYY displacement; n ≥ 3; read-out: Binding affinity Y2 (IC50)
T2 construct: SH-SY5Y cells endogenously expressing Y2; endogenous in cells; host or cells: SH-SY5Y
T2 sequence (P49146 1-381): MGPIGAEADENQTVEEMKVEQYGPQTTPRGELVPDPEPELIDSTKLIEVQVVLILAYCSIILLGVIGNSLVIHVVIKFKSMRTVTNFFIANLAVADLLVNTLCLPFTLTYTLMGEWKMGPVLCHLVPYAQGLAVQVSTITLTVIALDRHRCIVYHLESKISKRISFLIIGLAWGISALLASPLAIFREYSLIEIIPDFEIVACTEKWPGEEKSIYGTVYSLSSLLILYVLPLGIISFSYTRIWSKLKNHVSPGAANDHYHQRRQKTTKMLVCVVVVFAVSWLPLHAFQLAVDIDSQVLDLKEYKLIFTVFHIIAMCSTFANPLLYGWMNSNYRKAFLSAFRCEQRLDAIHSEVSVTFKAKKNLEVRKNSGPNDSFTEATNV
Protocol: as §1, §2

Compound	IC50 (NPY Y1 receptor) [µM]	IC50 (NPY Y2 receptor) [µM]	Y1 binding affinity in words (displacement of 125I-hPYY) (NPY Y1 receptor; SK-N-MC cell membrane pellet sections)
CC[C@H](C)[C@H](N)C(=O)N[C@@H](CC(N)=O)C(=O)N1CCC[C@H]1C(=O)N[C@@H](CSSC[C@H](NC(=O)[C@@H]1CCCN1C(=O)[C@H](CC(N)=O)NC(=O)[C@@H](N)[C@@H](C)CC)C(=O)N[C@@H](Cc1ccc(O)cc1)C(=O)N[C@@H](CCCNC(=N)N)C(=O)N[C@@H](CC(C)C)C(=O)N[C@@H](CCCNC(=N)N)C(=O)N[C@@H](Cc1ccc(O)cc1)C(N)=O)C(=O)N[C@@H](Cc1ccc(O)cc1)C(=O)N[C@@H](CCCNC(=N)N)C(=O)N[C@@H](CC(C)C)C(=O)N[C@@H](CCCNC(=N)N)C(=O)N[C@@H](Cc1ccc(O)cc1)C(N)=O [Analog 1, Bis(31/31')[Pro^30, Cys^31, Tyr^32, Leu^34]NPY(28-36)-NH2, reference compound] (I: H-INPCYRLRY-NH2 / II: H-INPCYRLRY-NH2; disulfide I:4-II:4)	0.011 ± 0.007	> 1	
CC[C@H](C)[C@H](NC(=O)CN1CCN(CC(=O)O)CCN(CC(=O)O)CCN(CC(=O)O)CC1)C(=O)N[C@@H](CC(N)=O)C(=O)N1CCC[C@H]1C(=O)N[C@@H](CSSC[C@H](NC(=O)[C@@H]1CCCN1C(=O)[C@H](CC(N)=O)NC(=O)[C@@H](NC(=O)CN1CCN(CC(=O)O)CCN(CC(=O)O)CCN(CC(=O)O)CC1)[C@@H](C)CC)C(=O)N[C@@H](Cc1ccc(O)cc1)C(=O)N[C@@H](CCCNC(=N)N)C(=O)N[C@@H](CC(C)C)C(=O)N[C@@H](CCCNC(=N)N)C(=O)N[C@@H](Cc1ccc(O)cc1)C(N)=O)C(=O)N[C@@H](Cc1ccc(O)cc1)C(=O)N[C@@H](CCCNC(=N)N)C(=O)N[C@@H](CC(C)C)C(=O)N[C@@H](CCCNC(=N)N)C(=O)N[C@@H](Cc1ccc(O)cc1)C(N)=O [Analog 2] (I: {DOTA}-INPCYRLRY-NH2 / II: {DOTA}-INPCYRLRY-NH2; disulfide I:4-II:4)	0.143 ± 0.037	> 1	
CCCC[C@H](NC(=O)[C@H](CCCNC(=N)N)NC(=O)[C@H](Cc1c[nH]c2ccccc12)NC(=O)[C@H](CSSC[C@H](NC(=O)[C@@H]1CCCN1C(=O)[C@H](CC(N)=O)NC(=O)[C@@H](N)[C@@H](C)CC)C(=O)N[C@@H](Cc1c[nH]c2ccccc12)C(=O)N[C@@H](CCCNC(=N)N)C(=O)N[C@@H](CCCC)C(=O)N[C@@H](CCCNC(=N)N)C(=O)N[C@@H](Cc1ccc(O)cc1)C(N)=O)NC(=O)[C@@H]1CCCN1C(=O)[C@H](CC(N)=O)NC(=O)[C@@H](N)[C@@H](C)CC)C(=O)N[C@@H](CCCNC(=N)N)C(=O)N[C@@H](Cc1ccc(O)cc1)C(N)=O [Analog 3] (I: H-INPCWR[Nle]RY-NH2 / II: H-INPCWR[Nle]RY-NH2; disulfide I:4-II:4)	0.009 ± 0.003	> 1	
hPYY: non-labeled human peptide YY, used as control in the binding assay [reference compound]			high-affinity displacements of ^125I-hPYY

Second part, led by results:

IC50 (NPY Y1 receptor) [µM]	IC50 (NPY Y2 receptor) [µM]	Compound	Y1 binding affinity in words (displacement of 125I-hPYY) (NPY Y1 receptor; SK-N-MC cell membrane pellet sections)
0.294 ± 0.033	> 1	CCCC[C@H](NC(=O)[C@H](CCCNC(=N)N)NC(=O)[C@H](Cc1c[nH]c2ccccc12)NC(=O)[C@H](CSSC[C@H](NC(=O)[C@@H]1CCCN1C(=O)[C@H](CC(N)=O)NC(=O)[C@@H](NC(=O)CN1CCN(CC(=O)O)CCN(CC(=O)O)CCN(CC(=O)O)CC1)[C@@H](C)CC)C(=O)N[C@@H](Cc1c[nH]c2ccccc12)C(=O)N[C@@H](CCCNC(=N)N)C(=O)N[C@@H](CCCC)C(=O)N[C@@H](CCCNC(=N)N)C(=O)N[C@@H](Cc1ccc(O)cc1)C(N)=O)NC(=O)[C@@H]1CCCN1C(=O)[C@H](CC(N)=O)NC(=O)[C@@H](NC(=O)CN1CCN(CC(=O)O)CCN(CC(=O)O)CCN(CC(=O)O)CC1)[C@@H](C)CC)C(=O)N[C@@H](CCCNC(=N)N)C(=O)N[C@@H](Cc1ccc(O)cc1)C(N)=O [Analog 4] (I: {DOTA}-INPCWR[Nle]RY-NH2 / II: {DOTA}-INPCWR[Nle]RY-NH2; disulfide I:4-II:4)	
0.143 ± 0.02	> 1	CCCC[C@H](NC(=O)[C@H](CCCNC(=N)N)NC(=O)[C@H](Cc1c[nH]c2ccccc12)NC(=O)[C@H](CSSC[C@H](NC(=O)[C@@H]1CCCN1C(=O)[C@H](CN)NC(=O)[C@@H](N)[C@@H](C)CC)C(=O)N[C@@H](Cc1c[nH]c2ccccc12)C(=O)N[C@@H](CCCNC(=N)N)C(=O)N[C@@H](CCCC)C(=O)N[C@@H](CCCNC(=N)N)C(=O)N[C@@H](Cc1ccc(O)cc1)C(N)=O)NC(=O)[C@@H]1CCCN1C(=O)[C@H](CN)NC(=O)[C@@H](N)[C@@H](C)CC)C(=O)N[C@@H](CCCNC(=N)N)C(=O)N[C@@H](Cc1ccc(O)cc1)C(N)=O [Analog 5] (I: H-I[Dap]PCWR[Nle]RY-NH2 / II: H-I[Dap]PCWR[Nle]RY-NH2; disulfide I:4-II:4)	
> 1	> 1	CCCC[C@H](NC(=O)[C@H](CCCNC(=N)N)NC(=O)[C@H](Cc1c[nH]c2ccccc12)NC(=O)[C@H](CSSC[C@H](NC(=O)[C@@H]1CCCN1C(=O)[C@H](CNC(=O)CN1CCN(CC(=O)O)CCN(CC(=O)O)CCN(CC(=O)O)CC1)NC(=O)[C@@H](N)[C@@H](C)CC)C(=O)N[C@@H](Cc1c[nH]c2ccccc12)C(=O)N[C@@H](CCCNC(=N)N)C(=O)N[C@@H](CCCC)C(=O)N[C@@H](CCCNC(=N)N)C(=O)N[C@@H](Cc1ccc(O)cc1)C(N)=O)NC(=O)[C@@H]1CCCN1C(=O)[C@H](CNC(=O)CN1CCN(CC(=O)O)CCN(CC(=O)O)CCN(CC(=O)O)CC1)NC(=O)[C@@H](N)[C@@H](C)CC)C(=O)N[C@@H](CCCNC(=N)N)C(=O)N[C@@H](Cc1ccc(O)cc1)C(N)=O [Analog 6] (I: H-I[Dap](DOTA)PCWR[Nle]RY-NH2 / II: H-I[Dap](DOTA)PCWR[Nle]RY-NH2; disulfide I:4-II:4)	
0.019 ± 0.005	> 1	CCCC[C@H](NC(=O)[C@H](CCCNC(=N)N)NC(=O)[C@H](Cc1c[nH]c2ccccc12)NC(=O)[C@H](CSSC[C@H](NC(=O)[C@@H]1CCCN1C(=O)[C@H](CC(N)=O)NC(=O)[C@@H](N)[C@@H](C)CC)C(=O)N[C@@H](Cc1c[nH]c2ccccc12)C(=O)N[C@@H](CCCNC(=N)N)C(=O)N[C@@H](CCCC)C(=O)N[C@@H](CCCNC(=N)N)C(=O)N[C@@H](Cc1ccc(O)cc1)C(N)=O)NC(=O)[C@@H]1CCCN1C(=O)[C@H](CN)NC(=O)[C@@H](N)[C@@H](C)CC)C(=O)N[C@@H](CCCNC(=N)N)C(=O)N[C@@H](Cc1ccc(O)cc1)C(N)=O [Analog 7] (I: H-I[Dap]PCWR[Nle]RY-NH2 / II: H-INPCWR[Nle]RY-NH2; disulfide I:4-II:4)	
